Results as given in ChEMBL document CHEMBL1150910, “Binaphthalenone glycosides from African chewing sticks, Diospyros lycioides” (1998).
Converted amounts (≈) assume the structure as drawn. The source made the active and inactive calls. The rule behind the calls is not given here.

Assays:
Porphyromonas gingivalis = assay: Antibacterial activity against Porphyromonas gingivalis after 48 hrs by spectrophotometry; assay type: functional
Streptococcus mutans = assay: Antibacterial activity against Streptococcus mutans Ingbritt after 48 hrs by spectrophotometry; assay type: functional
Streptococcus sanguinis = assay: Antibacterial activity against Streptococcus sanguis after 48 hrs by spectrophotometry; assay type: functional
Prevotella intermedia = assay: Antibacterial activity against Prevotella intermedia after 48 hrs by spectrophotometry; assay type: functional, organism-based

In the case of `CC1=C2c3c(C)cc(O)c4c(O[C@@H]5O[C@H](CO[C@@H]6OC[C@@H](O)[C@H](O)[C@H]6O)[C@@H](O)[C@H](O)[C@H]5O)ccc(c34)OC2(O)c2c(O[C@@H]3O[C@H](CO)[C@@H](O)[C@H](O)[C@H]3O)ccc(O)c2C1=O` (stereo not given in full), the Activity (Porphyromonas gingivalis) is reported as “inactive”, the MIC (Streptococcus mutans) is reported as 1 µg/mL (≈ 1.18 µM) and the MIC (Streptococcus sanguinis) is reported as 1 µg/mL (≈ 1.18 µM). For the same molecule, the Activity (Prevotella intermedia) was “inactive”.

For `CC1=C2c3c(C)cc(O)c4c(O[C@@H]5O[C@H](CO[C@@H]6OC[C@@H](O)[C@H](O)[C@H]6O)[C@@H](O)[C@H](O)[C@H]5O)ccc(c34)OC2(O)c2c(O[C@@H]3O[C@H](CO[C@@H]4OC[C@@H](O)[C@H](O)[C@H]4O)[C@@H](O)[C@H](O)[C@H]3O)ccc(O)c2C1=O` (stereo not given in full), the Activity (Porphyromonas gingivalis) was “inactive”, the MIC (Streptococcus mutans) was 1 µg/mL (≈ 1.02 µM) and the MIC (Streptococcus sanguinis) was 1 µg/mL (≈ 1.02 µM). For the same molecule, the Activity (Prevotella intermedia) was “inactive”.

With `C[n+]1cc2c3c(ccc2c2ccc4cc5c(cc4c21)OCO5)OCO3` [SANGUINARIUM] the MIC (Porphyromonas gingivalis) was 15 µg/mL and the MIC (Streptococcus mutans) was 15 µg/mL.
